# Key:
# EGFR (human) = EGFR (human) (UniProt P00533)
# CDK2 (Human) = CDK2 (Human) (UniProt P24941); experiment: Enzyme Assay
# Chain of EGFR (human) (P00533 whole entry, looked up): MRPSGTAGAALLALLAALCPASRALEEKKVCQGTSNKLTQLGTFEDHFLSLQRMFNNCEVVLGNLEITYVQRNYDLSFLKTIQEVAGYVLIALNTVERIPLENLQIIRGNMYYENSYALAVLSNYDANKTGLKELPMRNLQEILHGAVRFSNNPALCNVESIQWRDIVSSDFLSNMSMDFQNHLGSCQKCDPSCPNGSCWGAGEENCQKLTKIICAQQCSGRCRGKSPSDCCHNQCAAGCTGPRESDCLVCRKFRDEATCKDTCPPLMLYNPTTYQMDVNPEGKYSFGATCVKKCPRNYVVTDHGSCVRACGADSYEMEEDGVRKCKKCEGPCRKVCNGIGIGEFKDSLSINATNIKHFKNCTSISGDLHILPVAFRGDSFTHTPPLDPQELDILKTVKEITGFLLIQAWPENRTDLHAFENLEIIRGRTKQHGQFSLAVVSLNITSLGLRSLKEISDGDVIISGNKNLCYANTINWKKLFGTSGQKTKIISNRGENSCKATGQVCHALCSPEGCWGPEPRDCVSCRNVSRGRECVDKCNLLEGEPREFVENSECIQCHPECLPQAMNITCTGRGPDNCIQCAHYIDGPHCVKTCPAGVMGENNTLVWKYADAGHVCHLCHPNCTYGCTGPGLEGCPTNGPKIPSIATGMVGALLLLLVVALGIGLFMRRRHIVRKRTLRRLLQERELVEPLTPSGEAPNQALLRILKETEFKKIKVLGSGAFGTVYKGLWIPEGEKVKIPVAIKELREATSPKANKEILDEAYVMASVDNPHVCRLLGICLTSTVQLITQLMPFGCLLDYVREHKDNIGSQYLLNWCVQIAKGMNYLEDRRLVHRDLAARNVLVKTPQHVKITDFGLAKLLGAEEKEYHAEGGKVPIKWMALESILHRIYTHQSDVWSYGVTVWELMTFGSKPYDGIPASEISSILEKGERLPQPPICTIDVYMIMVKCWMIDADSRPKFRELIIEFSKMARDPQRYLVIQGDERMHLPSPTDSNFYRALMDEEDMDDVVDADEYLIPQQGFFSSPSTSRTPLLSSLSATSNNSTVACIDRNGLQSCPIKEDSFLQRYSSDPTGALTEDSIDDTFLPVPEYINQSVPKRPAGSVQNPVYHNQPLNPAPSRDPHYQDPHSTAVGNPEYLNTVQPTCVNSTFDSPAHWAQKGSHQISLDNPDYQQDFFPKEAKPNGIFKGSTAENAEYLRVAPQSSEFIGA
IC50 (EGFR (human)) [nM],IC50 (CDK2 (Human)) [nM],SMILES
,24,Cc1[nH]nc2c1N=C(c1ccccc1Cl)c1cc(NS(C)(=O)=O)ccc1N2
726,38,CC(=O)Nc1ccc2c(c1)C(c1ccccc1Cl)=Nc1c(n[nH]c1C)N2
,490,Cc1[nH]nc2c1N=C(c1ccccc1)c1cc(Cl)ccc1N2
,46,Cc1[nH]nc2c1N=C(c1ccccc1Cl)c1cc(NS(=O)(=O)N(C)C)ccc1N2
,17,Cc1[nH]nc2c1N=C(c1ccccc1F)c1cc(C(N)=O)ccc1N2
,320,COc1ccc2c(c1)C(c1ccccc1Cl)=Nc1c(n[nH]c1C)N2
,190,Cc1[nH]nc2c1N=C(c1ccccc1F)c1cc(Cl)ccc1N2
10900,16,Cc1[nH]nc2c1N=C(c1ccccc1F)c1cc(C#N)ccc1N2
,440,Cc1[nH]nc2c1N=C(c1ccccc1Cl)c1cc(Cl)ccc1N2

SMILES,IC50 (EGFR (human)) [nM],IC50 (CDK2 (Human)) [nM]
Cc1[nH]nc2c1N=C(c1ccccc1Cl)c1cc(N)ccc1N2,989,88
